# Experimental data reported in patent publication US20230165824A1, “METHODS, SYSTEMS AND COMPOSITIONS FOR INHIBITION OF CELLULAR DYSFUNCTION AND CELL DEATH WITH DEUTERATED PUFAs” (BioJiva LLC, priority 2021, published 2023).
# Like-named read-outs stand apart in the source and are kept apart here.
# Columns and labels:
# murine fibroblasts = settings: for % Cell Survival: murine fibroblasts treated with 50 micromolar erastin, plate dilution assay; for Level of protection against LPO induced cell death relative to 13,13-D2-arachidonic acid: murine fibroblasts, 50 micromolar erastin
# Experimental: In this example, two different pools of cells were each seeded in 48-well plates and treated with 50 micromolar of erastin.
# Afterwards, cell viability was measured by plate dilution assay to distinguish between cells that are alive and those that are dead on a Petri dish.
# patients with ALS = assay: ALSFRS-R rate of functional decline in ALS patients on primer/maintenance dosing regimen (Example 3); assay type: in vivo, human; settings: for Annualized average reduction in the rate of disease progression: 9 grams then 5 grams daily, vs natural history
# Experimental: As set forth in the examples below, the rate of functional decline is predicated on measuring an individual's, or a cohort's, average for the natural history of disease progression. Next, the individual or cohort average for the functional decline is determined at a period of time such as at 3, 6 or 12 months after initiation of therapy. The rate of decline based on the average of the natural history of the cohort is set as the denominator. The numerator is set as the delta between the rate of the natural history of disease progression and the rate of functional decline after a set period of treatment per this invention. The resulting fraction is the multiplied by 100 to give a percent change. The following exemplifies this analysis.
# This example illustrates the reduction in the rate of disease progression in patients with ALS treated by the dosing methods described herein, this example evidences that the amount of oxidized PUFA products has been reduced to a level that allows the otherwise impaired regulatory enzymes are able to neutralize substantially all of these oxidized products now generated. Specifically, a cohort of 3 patients was placed on a dosing regimen consisting of a first dosing component (primer dose) of about 9 grams of D2-LA ethyl ester daily for a period of at least 30 days and then all three patients were transitioned to a second dosing component (maintenance dose) of 5 grams of D2-LA ethyl ester.
# The functionality of each of the patients was evaluated periodically using the ALSFRS-R protocol. The patients continued on the dosing regimen for a period of 6 months (patient A) or 1 year (patient B) or for 9 months (patient C). Patient C died at the end of 9 months and their death was attributed to factors other than ALS cardiomyopathy. Before initiation of therapy, the natural history of each patient in the cohort was determined and an average annual rate of functional decline was measured at 21.
# The annualized progression of the disease, as measured by an average annual rate of functional decline for all three patients starting at the time that dosing began and terminating at the end of the dosing regimen and then annualized as described above, was measured as 2.1. Using the formula described above, one obtains the following: […]
# [1] = ALS patients on D2-LA; based on total AA and D2-AA; 'when calculated'
# Experimental: (§1) Patients suffering from ALS were treated with D2-LA over a period of time. […] Some patients were provided 2 grams of 11,11-D-2 LA per day as opposed to the loading dose of 9 grams per day.
# (§2) Functional scores for each of the patients (ALSFRS-R results) at the end of therapy were compared to the natural history scores at the start of therapy.
# [2] = Determination of D2-AA and D2-LA concentrations in CSF and RBCs in a single patient (Example 1)
# Description: This example determines the relative concentration of D2-AA in the CSF and in RBCs in order to determine a correlation between these two concentrations. Specifically, a patient was continuously provided with a daily dose of 9 grams of D2-LA ethyl ester (which is 8.64 grams of active discounting for impurities and removal of the ethyl ester) over about a six-month period. Periodic samples of blood and CSF were taken and the concentration of both D2-LA and D-2AA in both the RBCs and the CSF were measured. In all cases, the D2-AA was obtained by deacylation of the ethyl ester of linoleic acid in the gastrointestinal tract followed by conversion of D2-LA in vivo to D2-AA.
# [3] = INAD children, 3.9 grams D2-LA ethyl ester daily for 1 month then 2.9 grams
# Experimental: In this example, children suffering from INAD were treated with a daily dose of 3.9 grams of D2-LA ethyl ester followed by 2.9 grams of D2-LA ethyl ester. Given the age and weight of these children, such is assumed to be substantially equivalent to a loading dose of from about 7 and about 12 grams per day for an adult patient for an adult patient and a maintenance dose which is less than the loading dose again for an adult patient.
# This example also determines the concentration of D2-AA in RBCs. Specifically, a cohort of 14 children was provided with a daily dose of 3.9 grams of D2-LA ethyl ester for 1 month followed by 2.9 grams of D2-LA ethyl ester for the remaining six-month period. Blood samples were taken at 3 months for all but 1 child and at 6 months for all children. The concentration of D2-AA in RBCs was measured.
# [4] = 6 months; 15 INAD infants treated
# [5] = tested on: infants suffering from INAD; assay: Open label treatment study of INAD patients (Example 6); assay type: in vivo, human
# Experimental: Novel and conventional developmental neurologic assessment scales appropriate to the disease and which measure vital function in different parts of the brain were applied at base line and at 6 monthly intervals and the health and well-being of the infants were assessed continuously for 1-2 years, including any aspiration pneumonia, hospitalizations and deaths.
# [6] = tested on: patients suffering from ALS; assay: ALSFRS-R rate of functional decline in ALS patients treated with D2-LA (Comparative Example A); assay type: in vivo, human
# Experimental: as §1, §2
# [7] = 3 months, single patient, daily 9 grams D2-LA ethyl ester
# [8] = 6 months, single patient, daily 9 grams D2-LA ethyl ester
structure (smiles),measurement,setting,value
[2H]C([2H])(/C=C\CCCCC)/C=C\C([2H])([2H])/C=C\C([2H])([2H])/C=C\CCCC(=O)O,% Cell Survival,murine fibroblasts,70.2%
same,"Level of protection against LPO induced cell death relative to 13,13-D2-arachidonic acid",murine fibroblasts,approximately twice the level of protection
same,"Level of protection against LPO induced cell death relative to 13,13-D2-arachidonic acid",murine fibroblasts; listed as D6-AA,about 2
"[2H]C([2H])(/C=C\CCCCC)/C=C\CCCCCCCC(=O)OCC [D2-LA ethyl ester, 11,11-D2-linoleic acid ethyl ester]",Functional Rate Decline During Therapy,"patients with ALS; Patient A, 6 months on regimen, NH rate of decline −16",−3
same,Functional Rate Decline During Therapy,"patients with ALS; Patient B, 1 year on regimen, NH rate of decline −31",−2
same,Functional Rate Decline During Therapy,"patients with ALS; Patient C, 9 months on regimen, NH rate of decline −16",−1.3
same,Annualized average reduction in the rate of disease progression,patients with ALS; cohort of 3 ALS patients,90%
same,"Average annual rate of functional decline (ALSFRS-R) during dosing, annualized","patients with ALS; cohort of 3 ALS patients, about 9 grams daily at least 30 days then 5 grams, natural history 21",2.1
"[2H]C([2H])(/C=C\C/C=C\C/C=C\CCCC(=O)O)/C=C\CCCCC [D2-AA, 13,13-D2-Arachidonic Acid]","Amount of D2-AA in the patients' RBCs, average",[1],about 3%
same,% Cell Survival,murine fibroblasts,33.2%
same,"Amount of D2-AA in RBCs at 1 month, estimated by linear extrapolation","[2]; 1 month, extrapolated from 3 and 6 month values (FIG. 1)",about 3%
same,Concentration of D2-AA in CSF,"[2]; 1 month, single patient, daily 9 grams D2-LA ethyl ester, based on arachidonic acid + deuterated arachidonic acid",8%
same,Concentration of D2-AA in RBCs,[2]; [7],11.8%
same,Concentration of D2-AA in RBCs,[2]; [8],16.7%
same,Average concentration of D2-AA in the RBCs,[3]; 3 months,12%
same,Average concentration of D2-AA in the RBCs,[3]; 6 months,16.7%
same,Average plasma level of D2-AA,[4],17.4%
"[2H]C([2H])(/C=C\CCCCC)/C=C\CCCCCCCC(=O)O [D2-LA, 11,11-D2-Linoleic Acid]",Annualized average reduction in the rate of disease progression,patients with ALS; cohort of 3 ALS patients,~90%
same,Concentration of D2-LA in CSF,"[2]; 1 month, single patient, daily dose of 9 grams of D2-LA ethyl ester",19.8%
same,Concentration of D2-LA in RBCs,[2]; [7],34.7%
same,Concentration of D2-LA in RBCs,[2]; [8],34.5%
same,Deaths due to other causes,[5]; 19 INAD infants treated,2
same,Non-fatal pneumonia,[5]; 19 INAD infants treated,2
same,Serious events,[5]; 19 INAD infants treated at least 1 year and up to 2.5 years,4
same,No. of Aspirations resulting in pneumonias,"[5]; 19 INAD infants treated at least 1 year and up to 2.5 years, natural history 10/37",2/19
same,Percent mortality,"[5]; 19 INAD infants treated, mortality from pneumonias, natural history 21.6%",0%
same,Fatal Pneumonias,"[5]; 19 INAD infants treated, natural history 8",0
same,Percent Pneumonias,"[5]; 19 INAD infants treated, natural history 27.0%",10.5%
same,Deaths due to aspiration pneumonia,[5]; 19 subjects over 2.5 years treatment,no deaths due to aspiration pneumonia
same,Annualized rate of decline (ALSFRS-R) during treatment,"[6]; different dosing amounts and periods of D2-LA (some 2 grams per day), pre-treatment −14.2+/−4.4",−7.6+/−1.4 per year
same,Reduction in rate of decline vs pre-treatment,"[6]; p=0.07, paired t-test for within-subject change in slope",46%
